Experimental data reported in ChEMBL document CHEMBL5316343, “Design, Synthesis, and Biological Evaluation of a Potent Dual EZH2-BRD4 Inhibitor for the Treatment of Some Solid Tumors” (J Med Chem, 2023).

Experiments:
[1] = target: Bromodomain-containing protein 4 (Homo sapiens, UniProt O60885); experiment: Inhibition of BRD4 (unknown origin) by HTRF analysis
[2] = target: Histone-lysine N-methyltransferase EZH2 (Homo sapiens, UniProt Q15910); experiment: Inhibition of EZH2 (unknown origin) by radiometric assay
Histone-lysine N-methyltransferase EZH2, sequence (Q15910 whole entry): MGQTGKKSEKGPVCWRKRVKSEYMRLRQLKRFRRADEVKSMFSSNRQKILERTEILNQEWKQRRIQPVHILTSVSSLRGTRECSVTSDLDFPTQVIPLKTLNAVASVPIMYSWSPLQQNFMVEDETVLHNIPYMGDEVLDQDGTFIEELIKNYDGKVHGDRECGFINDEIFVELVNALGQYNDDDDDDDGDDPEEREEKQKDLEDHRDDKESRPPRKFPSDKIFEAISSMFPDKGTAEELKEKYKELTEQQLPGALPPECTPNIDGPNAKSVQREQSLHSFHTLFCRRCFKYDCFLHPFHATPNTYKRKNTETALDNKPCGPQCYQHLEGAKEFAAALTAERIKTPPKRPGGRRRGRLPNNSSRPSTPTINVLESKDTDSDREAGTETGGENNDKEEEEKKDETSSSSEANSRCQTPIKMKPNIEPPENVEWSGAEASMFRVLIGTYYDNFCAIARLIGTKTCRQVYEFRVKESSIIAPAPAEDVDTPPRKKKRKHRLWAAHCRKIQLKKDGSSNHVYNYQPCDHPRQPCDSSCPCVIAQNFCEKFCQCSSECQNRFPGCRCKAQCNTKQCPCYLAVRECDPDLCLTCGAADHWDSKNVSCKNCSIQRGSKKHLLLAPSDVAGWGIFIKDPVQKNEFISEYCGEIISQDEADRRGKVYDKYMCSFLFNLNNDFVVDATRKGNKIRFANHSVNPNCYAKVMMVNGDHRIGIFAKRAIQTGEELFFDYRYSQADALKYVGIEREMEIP

Compound	IC50 [1] [nM]	IC50 [2] [nM]
CCC(CC)n1ccc2c(C(=O)NCc3c4c(c(C)[nH]c3=O)CCCC4)cc(-c3cn(C)c(=O)c4[nH]ccc34)cc21	> 300	16
Cc1cc(C)c(CNC(=O)c2cc(-c3cn(C)c(=O)c4[nH]ccc34)cc3c2ccn3C(C)C)c(=O)[nH]1	214	5.7
Cc1cc(C)c(CNC(=O)c2cc(-c3cn(C)c(=O)c4[nH]ccc34)cc3c2ccn3CC2CCCCC2)c(=O)[nH]1	187	63
CCC(C)n1ccc2c(C(=O)NCc3c4c(c(C)[nH]c3=O)CCCC4)cc(-c3cn(C)c(=O)c4[nH]ccc34)cc21 (configuration not stated)	> 300	5.2
Cc1[nH]c(=O)c(CNC(=O)c2cc(-c3cn(C)c(=O)c4[nH]ccc34)cc3[nH]ccc23)c2c1CCCC2	> 300	100
Cc1cc(C)c(CNC(=O)c2cc(-c3cn(C)c(=O)c4[nH]ccc34)cc3c2ccn3C2CCCC2)c(=O)[nH]1	278	5
CCC(C)n1cc(C)c2c(C(=O)NCc3c(C)cc(C)[nH]c3=O)cc(-c3cn(C)c(=O)c4[nH]ccc34)cc21 (configuration not stated)	> 300	1.1
CCC(CC)n1ccc2c(C(=O)NCc3c(C)cc(C)[nH]c3=O)cc(-c3cn(C)c(=O)c4[nH]ccc34)cc21	154	3
CCCC(C)n1ccc2c(C(=O)NCc3c4c(c(C)[nH]c3=O)CCCC4)cc(-c3cn(C)c(=O)c4[nH]ccc34)cc21 (configuration not stated)	> 300	9.3
CCCC(C)n1ccc2c(C(=O)NCc3c(C)cc(C)[nH]c3=O)cc(-c3cn(C)c(=O)c4[nH]ccc34)cc21 (configuration not stated)	173	2.8
Cc1cc(C)c(CNC(=O)c2cc(-c3cn(C)c(=O)c4[nH]ccc34)cc3c2cnn3C2CCCC2)c(=O)[nH]1	> 300	37
